Reference: US20100179188A1, “NITROXIDE RADICAL AS TREATMENT FOR NEURODEGENERATION” (Office of Technology Transfer, NIH, priority 2007, published 2010)

Experiments:
[1] = tested on: TfR1; test: Western blot of TfR1 in brain-region lysates of IRP2−/− mice; assay type: in vivo; settings: lysates from cerebellum, brain-stem and forebrain of IRP2−/− mice, Tempo1 diet vs control diet
Method: Diet: The mice were weaned 3-4 weeks after their birth. Immediately after weaning, mice were maintained on either a Tempo1-supplemented or control diet. In the Tempo1-supplemented diet, powdered Tempo1 was uniformly mixed with bacon-flavored mouse chow by a “cold press” technique (Bio-Serv, Frenchtown, N.J., USA) at a concentration of 10 mg/g of food. Bacon-flavored chow without Tempo1 was used as the control diet.
Tissue and lysate preparation: Animals were euthanized and tissues were frozen in liquid nitrogen immediately after harvesting, and stored at −80° C. under argon. Experiments were performed on tissues that were pulverized in liquid N2-cooled mortars in an anaerobic chamber, and then lysed in lysis buffer that was deaerated by cyclic freezethaw and air-removal with argon. […]
Lysates made from various brain regions of IRP2−/− mice that were maintained on a control diet or on a Tempo1-supplemented diet were analyzed for IRE binding activity of IRP1 and for TfR1, IRP1, and actin protein levels by gel-shift assay and Western blot. […] FIG. 3b is a quantification of the results as intensity of the bands relative to the control, represented here as 100%. Quantification was performed with the IQMac (IRP1 activity) or NIH Image (protein levels) program. Error bars represent the standard deviation calculated from the results of two different sets of animals.

[2] = biological target: T1, IRP1 (Mus musculus, UniProt P28271); test: IRE-binding activity of IRP1 in IRP2−/− embryonic fibroblasts (gel shift); assay type: cell-based; set-up: Embryonic fibroblasts of 13-day old embryos were isolated from wild type, IRP1−/− mice and IRP2−/− mice; endogenous in cells; host or cells: mouse embryonic fibroblasts (wild type and IRP2−/−); settings: 0.3 and 1.0 mM, 16 h
T1 sequence (P28271 1-889): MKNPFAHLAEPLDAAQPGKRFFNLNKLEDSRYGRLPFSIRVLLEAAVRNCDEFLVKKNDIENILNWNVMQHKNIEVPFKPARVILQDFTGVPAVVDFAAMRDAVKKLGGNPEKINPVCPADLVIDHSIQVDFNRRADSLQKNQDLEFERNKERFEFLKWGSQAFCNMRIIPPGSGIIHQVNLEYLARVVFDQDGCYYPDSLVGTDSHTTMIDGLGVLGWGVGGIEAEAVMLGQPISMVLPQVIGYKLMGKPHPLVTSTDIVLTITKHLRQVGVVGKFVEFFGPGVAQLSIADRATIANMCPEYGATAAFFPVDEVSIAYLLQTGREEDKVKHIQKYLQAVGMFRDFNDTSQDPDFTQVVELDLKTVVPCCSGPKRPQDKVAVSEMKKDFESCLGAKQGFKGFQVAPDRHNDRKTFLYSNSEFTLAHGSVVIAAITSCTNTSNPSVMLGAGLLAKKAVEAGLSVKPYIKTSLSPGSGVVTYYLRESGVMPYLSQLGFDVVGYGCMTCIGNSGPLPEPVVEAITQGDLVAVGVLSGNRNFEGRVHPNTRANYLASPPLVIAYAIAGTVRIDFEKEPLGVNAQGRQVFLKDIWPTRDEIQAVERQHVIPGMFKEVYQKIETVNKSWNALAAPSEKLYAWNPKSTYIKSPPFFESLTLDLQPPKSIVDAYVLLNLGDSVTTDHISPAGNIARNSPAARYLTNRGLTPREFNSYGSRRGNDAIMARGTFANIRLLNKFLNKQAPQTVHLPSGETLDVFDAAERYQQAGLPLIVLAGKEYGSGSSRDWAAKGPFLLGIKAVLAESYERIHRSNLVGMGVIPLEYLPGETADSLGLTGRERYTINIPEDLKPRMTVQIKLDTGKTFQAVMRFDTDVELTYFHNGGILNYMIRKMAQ
Method: Cells: Embryonic fibroblasts of 13-day old embryos were isolated from wild type, IRP1−/− mice and IRP2−/− mice as described in LaVaute et al. supra. Myc-tagged HEK 293 Tet-on cell line, in which IRP2 expression was inducible, was prepared and cultured as described Bourdon et al., Blood Cells Mol Dis, 31, 247-255 (2003). Erythroblasts were harvested from bone marrow and purified as described in Cooperman et al., Blood, 106, 1084-1091 (2005).
RNA mobility shift assays: Gel retardation assays were performed as described in Meyron-Holtz et al., EMBO J, 23, 386-395 (2004). Tissue lysates were prepared in an anaerobic chamber as described above in oxygen-depleted lysis buffer containing 10 mM HEPES (pH 7.2), 3 mM MgC12, 40 mM KCl, 5% glycerol, 0.2% Nonidet P-40, 5 mM DTT, 1 mM AEBSF, 10 μg/ml. Leupeptin and complete TM EDTA free protease inhibitor cocktail (Roche Applied Science, Indiana). […]
To study the effect of Tempo1 on the IRE-binding activity of IRP1, IRP2−/− embryonic fibroblasts that were maintained in culture supplemented with 0, 0.3 and 1.0 mM Tempo1, with or without ferric ammonium citrate (FAC), for 16 h. […] Quantification was performed with the IQMac (IRP1 activity) or NIH Image (protein levels) program. Error bars represent the standard deviation calculated from the results of two different sets of experiments.

## CC1(C)CC(O)CC(C)(C)N1[O] [Tempo1]
[1]
  TfR1 protein levels: markedly increased
[2]
  IRE-binding activity of IRP1: activate IRP1
